# Tests used:
# [1] = system: plastic adherent monocytes; test: Gene expression analysis with Human Cytokine CHIP (ver. 2.0) in LPS-treated plastic adherent monocytes; assay type: cell-based
# Method: Four-hundred milliliters of blood was collected from a human normal individual donor. The collected blood was diluted 2-folds with PBS(−), overlaid on Ficoll-paque (manufactured by Pharmacia), and centrifuged at 500×g for 20 minutes. The peripheral blood mononuclear cells (PBMCs) in the intermediate layer was collected with a pipette, and washed with RPMI 1640 medium (manufactured by Bio Whittaker). The collected PBMCs were suspended in a storage solution of 90% FCS (manufactured by JRH Biosciences)/10% dimethyl sulfoxide, and stored in liquid nitrogen. During the experiment, these stored PBMCs were rapidly melted in water bath at 37° C., and washed with RPMI 1640 medium containing 10 μg/ml Dnase (manufactured by Calbiochem). Thereafter, the number of living cells was calculated by trypan blue staining method, and subjected to each experiment.
# PBMCs were suspended in RPMI 1640 medium containing 5% human serum of blood type-AB, 0.1 mM nonessential amino acid, 1 mM sodium pyruvate, 2 mM L-glutamine (hereinabove manufactured by Bio Whittaker), 10 mM HEPES (manufactured by nakalai tesque), and 1% streptomycin-penicillin (manufactured by Gibco BRL) (hereinafter simply referred to as “5HRPMI medium”) so as to have a concentration of 1×10^7 cells/mL. Thereafter, 15 ml of the suspension was spread on a 100-mm petri dish (manufactured by Asahi Techno Glass), and the cells were incubated in a wet-type incubator at 37° C. in the presence of 5% CO2 for 1.5 hours. […]
# The synthesis of cDNA was carried out in accordance with the method described in item (2) of Example 1, provided that the combination of the solutions of fluorescence-labeled DNA was in accordance with that shown in Table 6. […]
# The fluorescence signal was scanned for each spot of the above-mentioned chip by using Affymetrix 428 Array Scanner (manufactured by Takara Shuzo Co., Ltd.). The fluorescence signal was quantified for each spot by using ImaGene (manufactured by Takara Shuzo Co., Ltd., BD001) on the bases of the image data. […]
# HL-60 cells [2] = test: Analysis of expression using DNA microarray (740 clones from DNA microbeads screening) in TPA-treated differentiated HL-60 cells; assay type: cell-based, human; conditions: 4 mM DGE 100 μL in 10 mL, 6 hours, then TPA, RNA 4 hours thereafter, expression ratio 0.55 or less or 1.8 or more
# Method: The reaction for PCR was carried out by using a primer pair having the sequences shown in SEQ ID NO: 10 and SEQ ID NO: 11 of Sequence Listing, with the 740 clones of plasmids obtained in Example 3 as a template. Next, the amplified product was purified by ethanol precipitation, and thereafter the product was dissolved in 1×SolutionT (manufactured by Takara Shuzo Co., Ltd.) so as to have a concentration of 0.3 μg/μl, and this solution was used as a spotting solution. The spotting solution was spotted on MAS-coated slide glass (manufactured by Matsunami Glass), amino-group carrying slide glass, by using Affymetrix 417 Arrayer (manufactured by Affymetrix). The spotted glass was incubated at 37° C. and humidity of 90% for 1 hour, and thereafter cross-linked by UV irradiation at energy of 60 mJ/cm^2. Further, the slide glass was washed once with 0.2% SDS and then twice with distilled water, and thereafter immersed in a blocking solution comprising 2.75 g of succinic anhydride, 162.5 ml of N-methyl-2-pyrrolidone and 15 ml of 1 M borate buffer (pH 8.0) for 20 minutes, to block free amino groups. Next, the slide glass was washed twice with distilled water and subjected to thermal denaturation in boiling water for 2 minutes, and rapidly cooled in 100% ethanol at ice temperature. Thereafter, the slide glass was dried by a low-speed centrifugation at 1000 rpm or so, and used for the following experiment. […]
# A PolyA(+) RNA was prepared from HL-60 cells prepared in item (2) of Example 4 by using Trizol Reagent (manufactured by Gibco BRL) and Oligotex-dT30 <Super> (manufactured by Takara Shuzo Co., Ltd.) in accordance with the protocol for each of the kits. Next, each of cDNAs labeled with Cy3 and Cy5 was prepared by using RNA Fluorescence Labeling Core Kit (M-MLV Version) (manufactured by Takara Shuzo Co., Ltd.) in accordance with the protocol for the kit with 1.0 μg of PolyA(+) RNA as a template, and their cDNAs were mixed in the combinations of the sample RNA shown in Table 8.
# Next, hybridization of the DNA microarray prepared in item (1) of Example 4 with the above-mentioned mixtures (4 kinds) of Cy3-labeled cDNA and Cy5-labeled cDNA was carried out in accordance with the instruction manual of IntelliGene (manufactured by Takara Shuzo Co., Ltd.), and the array was subjected to procedures of washing and drying. Subsequently, the fluorescence images were obtained for Cy3 (excitation wavelength: 532 nm, detection wavelength: 570 nm) and Cy5 (excitation wavelength: 635 nm, detection wavelength: 660 nm) by using Affymetrix 428 Array Scanner (manufactured by Affymetrix). […]
# HL-60 cells [3] = test: Gene expression analysis with Human Cytokine CHIP (ver. 1.0) in TPA-treated neutrophile-like differentiated HL-60 cells; assay type: cell-based; conditions: genes showing fluctuation by TPA; 100 μL of 4 mM DGE aqueous solution added to 10 mL of 10^6 cells/mL, 6 hours, then TPA, total RNA 4 hours thereafter
# Method: HL-60 cells (ATCC CCL-240) were suspended in RPMI 1640 medium (manufactured by Bio Whittaker, 12-702F) containing 10% fetal bovine serum (manufactured by JRH Biosciences) and 1.3% dimethyl sulfoxide, and the cells were cultured at 37° C. for one week in the presence of 5% carbon dioxide gas to induce differentiation to neutrophile-like cells.
# The cells obtained as described above were collected by centrifugation, and suspended in 10% fetal bovine serum-containing RPMI 1640 medium so as to have a concentration of 10^6 cells/mL, and 10-mL portions of the cells were added to a 10-cm petri dish. […]
# Twenty-five micrograms of each of the total RNAs obtained as described above and 100 pg of λ poly A^+ RNA-A (manufactured by Takara Shuzo Co., Ltd., TX802) were subjected to synthesis reaction of fluorescence-labeled cDNA by using RNA Fluorescence Labeling Core Kit (manufactured by Takara Shuzo Co., Ltd., TX807) and 1 mM FluoroLink Cy3-dUTP or Cy5-dUTP (manufactured by Amersham-Pharmacia Biotech, PA53022(Cy3), PA55022(Cy5) in accordance with the instruction for the kit and the resulting cDNA was purified. The solutions of fluorescence-labeled DNA were mixed in the combination of Table 4, and the mixture was subjected to a chloroform-isoamyl alcohol (24:1) extraction. […]
# [4] = clones decreased by treatment with TPA
# [5] = clones increased by treatment with TPA
structure (smiles),measurement,setting,value
"O=C1C=CC(CO)OC1O [DGE, L-glycero-1,5-epoxy-1αβ,6-dihydroxy-cis-hex-3-en-2-one]","Increase by LPS in expression of Group E genes (IL2RA, IL6, CD166, IRF1, IL15RA, NFKB1, CASP1, IL1B, TNF-α, GRO1, IL1A, INHBA, IL7R, PBEF, LARC, IL8; Table 7)","[1]; 10 μL of 20 mM DGE aqueous solution in 10 mL medium, 4 hours, then LPS, total RNA 4 hours thereafter",suppressed
same,Expression of Group G genes (Heme oxygenase-1 HMOX1; Table 7),[1]; DGE+LPS versus negative control,increased
same,"Expression of Group F genes (CSF1R, CXCR4, ENG; Table 7)","[1]; genes not fluctuating by LPS, DGE+LPS versus negative control",decreased
same,"Expression of Group C-3 clones (NDRG1, ADAR, SF3B2, ILF3, VARS2, SEQ ID NO: 12; Tables 9, 11)",HL-60 cells [2]; [4],further decreased
same,"Expression of Group D-3 clones (EEF1A1, RPL17, RPL24, SFRS2, TPT1, UQCRB, RPS15A, RPL27; Tables 10, 11)",HL-60 cells [2]; [4],further increased
same,"Expression of Group A-3 clones (STAT6, FLJ22298 fis clone HRC04637; Tables 9, 11)",HL-60 cells [2]; [5],further decreased
same,"Expression of Group B-3 clones (SUI1, HSPC014; Tables 9, 11)",HL-60 cells [2]; [5],further increased
same,"Expression of Group A-1 genes (BMP-6, CCR-1, HGF, ICAM-1, IL-1β, IL-16, LIF, Osteopontin, TNF-α, Neuropilin-1; Table 5)",HL-60 cells [3],suppressed
same,"Expression of Group B-1 genes (Heme oxygenase-1, Thioredoxin reductase-1; Table 5)",HL-60 cells [3],accelerated
